Holding throughout (format): binding
One assay concerns the target T1, RXFP3 (Homo sapiens, UniProt Q9NSD7).
T1 construct: purchased Promega (in-house HiBiT-GPCR construct library, NanoBRET)
T1 sequence (Q9NSD7 1-469): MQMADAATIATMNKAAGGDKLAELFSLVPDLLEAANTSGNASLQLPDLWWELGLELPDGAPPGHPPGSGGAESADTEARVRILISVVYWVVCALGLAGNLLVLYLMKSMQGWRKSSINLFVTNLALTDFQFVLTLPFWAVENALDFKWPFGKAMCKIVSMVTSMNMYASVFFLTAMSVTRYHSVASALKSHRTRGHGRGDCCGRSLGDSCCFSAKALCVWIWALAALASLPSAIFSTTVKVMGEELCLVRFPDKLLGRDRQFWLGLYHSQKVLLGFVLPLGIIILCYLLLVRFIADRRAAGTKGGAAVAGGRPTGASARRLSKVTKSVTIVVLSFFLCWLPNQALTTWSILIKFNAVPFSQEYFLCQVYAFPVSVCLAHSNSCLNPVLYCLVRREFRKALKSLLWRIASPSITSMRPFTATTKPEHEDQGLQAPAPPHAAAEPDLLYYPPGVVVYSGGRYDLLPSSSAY
The experiment in a line: NanoBRET screen HiBiT-RXFP3 in HEK293. On the procedure: (§1) Each tracer candidate was screened across the entire library of HiBiT-GPCR constructs using NanoBRET as the detection modality. As depicted in Figure 4A, the specificity of interactions was evaluated through decrease in BRET due to competitive displacement of a bound tracer by excess parental compound. Each tracer was analyzed for binding to each HiBiT-GPCR fusion in the absence and in the presence of competing parental compound. Briefly, HEK293 cells were transfected with HiBiT-GPCR constructs diluted into promoterless DNA to reduce expression and maximize translocation to the cell surface. Each tracer candidate was then screened at concentrations of 1 μM and 0.1 μM across cells expressing these fusions. Cells were treated for 1.5 h with tracer either alone or in the presence of 20 μM competing parental compound (i.e., control). BRET was measured upon addition of purified LgBiT and subsequent complementation with HiBiT genetically fused to a GPCR. The specificity of interactions was assessed through a decrease in BRET signal due to competitive displacement of the bound tracer. To further gauge the robustness of these interactions, the fold response over the control (i.e., BRETtracer/BRETcontrol) was calculated. We chose a 1.5-fold response, which translates to ≥7-fold signal over noise as the minimal threshold required to score an interaction as positive. […]. Below we highlight the screening results obtained for our exemplary fluorescent tracers based on Clozapine, Amitriptyline and AZD1283.
(§2) HiBiT-GPCR DNA constructs were diluted in 10 mM Tris pH 8 to a final concentration of 0.01 μg/μL, arrayed in 96-well plates and stored at −20 °C. For transfection, HEK293 cells were suspended in Opti-MEM (without phenol red) supplemented with 2% fetal bovine serum (Seradigm) and 100 units/mL penicillin–streptomycin (Gibco) at a final concentration of 220,000 cells/mL and dispensed into white 96-well plates at 90 μL/well. Subsequent transfections and screens were carried using an Agilent Bravo Automated Liquid Handling Platform. First, the 96-well HiBiT DNA arrays were diluted 25-fold in Opti-MEM (without serum or phenol red) to a final concentration of 0.0004 μg/μL and 20 μL of the diluted DNAs were transferred into new 96-well plates. Next, promoterless carrier DNA (1 μg/μL) was diluted 25-fold (0.04 μg/μL) and then dispensed into the diluted arrays at 20 μL/well. Following brief mixing, Viafect transfection reagent (Promega) diluted 16-fold into Opti-MEM was dispensed into the plates at 40 μL/well. After mixing by pipetting, plates were incubated for 10 min on the pipetting station deck. The DNA-transfection reagent complexes were then added to plates containing cells. To facilitate the screen, 10 μL of DNA-transfection reagent complexes were added in duplicates to the top 4 and bottom 4 rows, resulting in two identical 48-well arrays per plate. Plates with transfected cells were incubated for 18–20 h at 37 °C/5% CO2. A screen of each tracer across the entire library using two different concentrations requires duplicate plates of transfected cells. Depending on the number of tracers being screened, transfections can be scaled up using the same ratios. The next day, for each tracer, four 20× screening solutions in tracer dilution buffer (Promega) were prepared: two duplicates at final concentration of 20 μM and two duplicates at a final concentration of 2 μM. A competing unmodified compound was added to one of each duplicate at a final concentration of 400 μM. The four resulting solutions were diluted 4-fold in Opti-MEM without serum or phenol red to generate 5× solutions (5 µM and 0.5 µM tracer +/− 100 μM competing compound). To screen the library, a BioTek MultiFlo FX liquid dispenser was used to dispense 22.5 µL of tracer solution to the top 4 rows and 22.5 µL tracer + competing compound solution to the 4 bottom rows. Plates were briefly mixed on an orbital shaker and incubated for 1.5 h at room temperature. […]

A further assay deals with T2, GALR2 (Homo sapiens, UniProt O43603).
T2 construct: purchased Promega (in-house HiBiT-GPCR construct library, NanoBRET)
T2 sequence (O43603 1-387): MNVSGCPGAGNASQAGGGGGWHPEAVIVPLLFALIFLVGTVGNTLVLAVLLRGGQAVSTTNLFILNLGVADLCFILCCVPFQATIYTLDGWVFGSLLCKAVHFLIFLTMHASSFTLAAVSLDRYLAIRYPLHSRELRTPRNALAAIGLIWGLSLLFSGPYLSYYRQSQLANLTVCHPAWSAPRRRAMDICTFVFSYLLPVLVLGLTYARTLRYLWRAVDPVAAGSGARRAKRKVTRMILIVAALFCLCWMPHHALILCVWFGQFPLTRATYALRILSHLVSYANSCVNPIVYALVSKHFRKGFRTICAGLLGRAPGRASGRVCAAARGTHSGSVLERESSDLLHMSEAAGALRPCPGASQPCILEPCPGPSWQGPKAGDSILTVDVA
Put plainly: NanoBRET screen HiBiT-GALR2 in HEK293. On the procedure:
as §1, §2

The next assay deals with T3, ADRB1 (Homo sapiens, UniProt P08588).
T3 construct: purchased Promega (in-house HiBiT-GPCR construct library, NanoBRET)
The experiment in a line: NanoBRET screen HiBiT-ADRB1 in HEK293.

T3 sequence (P08588 whole entry): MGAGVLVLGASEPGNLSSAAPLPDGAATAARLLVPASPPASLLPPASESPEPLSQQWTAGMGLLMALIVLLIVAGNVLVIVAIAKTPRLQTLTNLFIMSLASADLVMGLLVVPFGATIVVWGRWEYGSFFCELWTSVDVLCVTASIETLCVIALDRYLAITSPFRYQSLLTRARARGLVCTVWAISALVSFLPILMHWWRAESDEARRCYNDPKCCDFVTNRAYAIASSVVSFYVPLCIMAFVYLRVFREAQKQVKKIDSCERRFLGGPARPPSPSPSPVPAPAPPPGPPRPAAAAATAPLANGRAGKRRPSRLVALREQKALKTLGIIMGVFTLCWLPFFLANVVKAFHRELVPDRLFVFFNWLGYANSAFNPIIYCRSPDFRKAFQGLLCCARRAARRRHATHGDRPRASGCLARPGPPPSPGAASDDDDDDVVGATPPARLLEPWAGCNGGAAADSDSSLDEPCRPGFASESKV

For `COc1ccc2c(n1)c(CCNC(C)=O)cn2CCNC(=O)CCc1ccc2n1[B-](F)(F)[N+]1=C(c3ccc[nH]3)C=CC1=C2` [Azamelatonin-1-NB590], the “NanoBRET Fold Response” value at RXFP3 (0.1μM tracer) was found to be 1.07; at RXFP3 (1μM tracer) it was 1.11; on GALR2 (0.1μM tracer), 0.91; on GALR2 (1μM tracer) it was 1.23; at ADRB1 (0.1μM tracer) it was 0.98; at ADRB1 (1μM tracer), 0.96.

In the case of `CC(C)N(CC[C@H](c1ccccc1)c1cc(CCNC(=O)c2ccc(CNC(=O)CCc3ccc4n3[B-](F)(F)[N+]3=C(c5ccc[nH]5)C=CC3=C4)cc2)ccc1O)C(C)C` [Tolterodine-BZ-NB590], the “NanoBRET Fold Response” value at RXFP3 (RXFP3, tracer 0.1μM) is given as 1.01; at RXFP3 (RXFP3, tracer 1μM) it was 1.19; on GALR2 (GALR2, tracer 0.1μM), 0.99; on GALR2 (GALR2, tracer 1μM) it was 1.08; on ADRB1 (ADRB1, tracer 0.1μM), 1.02; on ADRB1 (ADRB1, tracer 1μM) it was 1.10.

As to `O=C(CCc1ccc2n1[B-](F)(F)[N+]1=C(c3ccc[nH]3)C=CC1=C2)NCCOCCOCCNC(=O)OCCOCCN1CCN(C2=Nc3ccccc3Sc3ccccc32)CC1` [Quetiapine-a-2-NB590], the “NanoBRET Fold Response” value on RXFP3 (RXFP3, tracer 0.1μM) was 0.88; on RXFP3 (RXFP3, tracer 1μM), 0.92; at GALR2 (GALR2, tracer 0.1μM), 1.01; at GALR2 (GALR2, tracer 1μM), 0.83; at ADRB1 (ADRB1, tracer 0.1μM), 1.00; at ADRB1 (ADRB1, tracer 1μM), 0.91.

`Cc1cc2c(s1)Nc1ccccc1N=C2N1CCN(CCCNC(=O)CCOCCOCCOCCOCCNC(=O)CCc2ccc3n2[B-](F)(F)[N+]2=C(c4ccc[nH]4)C=CC2=C3)CC1` [Olanzapine-a-2-NB590]: the “NanoBRET Fold Response” value at RXFP3 (RXFP3, tracer 0.1μM) turned out to be 0.97; on RXFP3 (RXFP3, tracer 1μM), 1.11; on GALR2 (GALR2, tracer 0.1μM) it was 0.96; on GALR2 (GALR2, tracer 1μM) it was 1.07; at ADRB1 (ADRB1, tracer 0.1μM), 1.01; on ADRB1 (ADRB1, tracer 1μM) it was 0.97.

Regarding `O=C(CCc1ccc2n1[B-](F)(F)[N+]1=C(c3ccc[nH]3)C=CC1=C2)NCc1ccc(C(=O)NCCOCCOCCNCC(O)COc2cccc3ccccc23)cc1` (centres unmarked) [Propranolol-3-NB590], the “NanoBRET Fold Response” value turned out to be 1.14 at RXFP3 (RXFP3, 0.1μM); 1.08 on RXFP3 (RXFP3, 1μM); 1.00 on GALR2 (GALR2, 0.1μM); 0.99 at GALR2 (GALR2, 1μM).

As to `N#CN/C(=N\CCNC(=O)c1ccc(N)cc1)NCCCOc1cccc(CN2CCCCC2)c1` [Aminopotentidine (unmodified)], the “NanoBRET Fold Response” value is recorded as 1.01 at ADRB1 (ADRB1, other tracers/Aminopotentidine (unmodified), 0.1μM) and 1.07 at ADRB1 (ADRB1, other tracers/Aminopotentidine (unmodified), 1μM).

Turning to `CN1CCN(C2=Nc3cc(Cl)ccc3N(CC(=O)NCCOCCOCCOCCOCCNC(=O)CCc3ccc4n3[B-](F)(F)[N+]3=C(c5ccc[nH]5)C=CC3=C4)c3ccccc32)CC1` [Clozapine-c-2-NB590], the “NanoBRET Fold Response” value on RXFP3 (RXFP3, 0.1μM tracer) was 0.99; on RXFP3 (RXFP3, 1μM tracer), 1.05; on GALR2 (GALR2, 0.1μM tracer), 1.00; at GALR2 (GALR2, 1μM tracer), 1.05; on ADRB1 (ADRB1, 0.1μM tracer) it was 1.02; at ADRB1 (ADRB1, 1μM tracer) it was 0.94.

For `O=C(CCc1ccc2n1[B-](F)(F)[N+]1=C(c3ccc[nH]3)C=CC1=C2)NCc1ccc(C(=O)NCCOCCC(=O)N[C@@H]2CC[C@@]3(O)[C@H]4Cc5ccc(O)c6c5[C@@]3(CCN4CC3CC3)[C@H]2O6)cc1` [Naltrexone-3-NB590], the “NanoBRET Fold Response” value turned out to be 0.98 at RXFP3 (RXFP3, tracer 0.1μM); 1.05 on RXFP3 (RXFP3, tracer 1μM); 1.00 at GALR2 (GALR2, tracer 0.1μM); 0.98 on GALR2 (GALR2, tracer 1μM); 1.34 on ADRB1 (ADRB1, tracer 0.1μM); 0.83 on ADRB1 (ADRB1, tracer 1μM).

`CC(C)N(CC[C@H](c1ccccc1)c1cc(CCNC(=O)CCOCCOCCOCCOCCNC(=O)CCc2ccc3n2[B-](F)(F)[N+]2=C(c4ccc[nH]4)C=CC2=C3)ccc1O)C(C)C` [Tolterodine-2-NB590]: the “NanoBRET Fold Response” value at RXFP3 (RXFP3, tracer 0.1μM) is 1.18; at RXFP3 (RXFP3, tracer 1μM), 1.10; on GALR2 (GALR2, tracer 0.1μM) it was 0.97; on GALR2 (GALR2, tracer 1μM) it was 1.09; at ADRB1 (ADRB1, tracer 0.1μM), 1.09; on ADRB1 (ADRB1, tracer 1μM), 0.99.

`Cc1nc2n(c(=O)c1CCN1CCC(c3noc4cc(F)ccc34)CC1)CCCC2OC(=O)NCCOCCOCCOCCOCCNC(=O)CCc1ccc2n1[B-](F)(F)[N+]1=C(c3ccc[nH]3)C=CC1=C2` (centres unmarked) [Risperidone-2-NB590]: the “NanoBRET Fold Response” value at RXFP3 (RXFP3, tracer 0.1μM) is 1.00; at RXFP3 (RXFP3, tracer 1μM), 1.00; at GALR2 (GALR2, tracer 0.1μM), 1.03; at GALR2 (GALR2, tracer 1μM), 0.97; on ADRB1 (ADRB1, tracer 0.1μM) it was 0.98; at ADRB1 (ADRB1, tracer 1μM), 1.05.

`COc1ccccc1N1CCN(CCCCN2C(=O)c3ccc(CNC(=O)CCOCCNC(=O)c4ccc(CNC(=O)CCc5ccc6n5[B-](F)(F)[N+]5=C(c7ccc[nH]7)C=CC5=C6)cc4)cc3C2=O)CC1` [NAN-190-3-NB590]: the “NanoBRET Fold Response” value was determined as 1.08 at RXFP3 (RXFP3, tracer 0.1μM); 0.95 on RXFP3 (RXFP3, tracer 1μM); 1.03 at GALR2 (GALR2, tracer 0.1μM); 1.00 on GALR2 (GALR2, tracer 1μM).

`COc1ccccc1N1CCN(CCCCN2C(=O)c3ccc(CNC(=O)CCOCCOCCOCCOCCNC(=O)CCc4ccc5n4[B-](F)(F)[N+]4=C(c6ccc[nH]6)C=CC4=C5)cc3C2=O)CC1` [NAN-190-2-NB590]: the “NanoBRET Fold Response” value on RXFP3 (RXFP3, tracer 0.1μM) is recorded as 1.02; on GALR2 (GALR2, tracer 0.1μM) it was 1.00; on GALR2 (GALR2, tracer 1μM), 0.99.

Regarding `CN(CCC=C1c2ccccc2CCc2ccccc21)C(=O)CCOCCOCCOCCOCCNC(=O)CCc1ccc2n1[B-](F)(F)[N+]1=C(c3ccc[nH]3)C=CC1=C2` [Amitriptyline-e-2-NB590], at ADRB1 (tracer at 1μM), the “NanoBRET Fold Response” value came out at 0.95.

Values taken from paper PMC8151276, “An Integrated Approach toward NanoBRET Tracers for Analysis of GPCR Ligand Engagement” (Molecules, 2021).
